How the values were obtained:
Assay type in all cases: cell-based, SJL mice
[1] = system: encephalitogenic lymphocytes; experiment: Spontaneous adhesion of encephalitogenic T cells on purified ICAM-1; conditions: Mus musculus, Lymphocyte, 1 h; for inhibition at 5 µM: [cpd] 5 μM, read-out: Inhibition of Spontaneous Adhesion in encephalitogenic lymphocytes (% of control/non-treated cells) ICAM-1; for inhibition at 10 µM: [cpd] 10 μM; for inhibition at 10 µM / inhibition at 25 µM / inhibition at 50 µM / inhibition at 100 µM: read-out: Inhibition of Spontaneous Adhesion in encephalitogenic lymphocytes (% of control/non-treated cells) ICAM-1 (converted); for inhibition at 25 µM: [cpd] 25 μM; for inhibition at 50 µM: [cpd] 50 μM; for inhibition at 100 µM: [cpd] 100 μM
Protocol: (§1) Spontaneous adhesion of encephalitogenic lymphocytes was measured in adhesion assays on purified ICAM-1 and VCAM-1 as previously described (Constantin G. et al., J. Immunol. 162, 1144-1149, 1999). Autoreactive T cells were obtained from SJL mice immunized with PLP139-151 as described (Piccio L. et al., J. Immunol. 168, 1940-1949, 2002). Lymphocytes were treated with test compound at concentrations between 5-100 μM for 1 h, while control/untreated cells were treated with vehicle (DMSO). Results are expressed as percentage of inhibition over control (=100%) ±S.D and are the mean of three-four experiments.
(§2) ICAM-1 and VCAM-1 are adhesion molecules from the family of immunoglobulins and control the migration of lymphocytes through the endothelium during inflammatory responses. Encephalitogenic T cells are activated lymphocytes displaying spontaneous adhesion on ICAM-1 and VCAM-1 and have increased migration capacities in inflammation sites. Spontaneous adhesion of encephalitogenic lymphocytes was measured in adhesion assays on purified ICAM-1 and VCAM-1 as described in the method.

[2] = system: encephalitogenic lymphocytes; experiment: Spontaneous adhesion of encephalitogenic T cells on purified VCAM-1; conditions: Mus musculus, Lymphocyte, 1 h; for inhibition at 5 µM: [cpd] 5 μM, read-out: Inhibition of Spontaneous Adhesion in encephalitogenic lymphocytes (% of control/non-treated cells) VCAM-1; for inhibition at 10 µM: [cpd] 10 μM; for inhibition at 10 µM / inhibition at 25 µM / inhibition at 50 µM: read-out: Inhibition of Spontaneous Adhesion in encephalitogenic lymphocytes (% of control/non-treated cells) VCAM-1 (converted); for inhibition at 25 µM: [cpd] 25 μM; for inhibition at 50 µM: [cpd] 50 μM
Protocol: as §1, §2

[3] = system: encephalitogenic lymphocytes; experiment: Chemokine-induced adhesion of murine encephalitogenic T cells to ICAM-1; conditions: for Block of chemokine-induced autoreactive lymphocyte adhesion, in words: 5-50 μM for 1 h, 1 μM CCL19; for Chemokine-induced Adhesion in encephalitogenic lymphocytes, Mean counts ± S.D., in presence of MIP3-β stimulation: 1 μM CCL19 (MIP-3beta); for Chemokine-induced Adhesion in encephalitogenic lymphocytes, Mean counts ± S.D., in presence of MIP3-β stimulation / Adhesion in encephalitogenic lymphocytes, Mean counts ± S.D., in absence of MIP3-β stimulation: ICAM-1
Protocol: Adhesion was performed on purified integrin ligands and was evaluated as reported in Constantin G. et al., Immunity, 16, 759-769, 2000. Briefly, primary naïve lymphocytes, polymorphonuclear neutrophils (PMNs) or monocytes were isolated form healthy donors. In other experiments, murine autoreactive T cells were obtained from SJL mice immunized with PLP139-151 as described (Piccio L. et al., J. Immunol, 168, 1940-1949, 2002). Cells were resuspended at 4×10^6/ml in PBS, CaCl2, MgCl2 1 mM, 10% FCS, pH 7.2. Adhesion assays were performed on eighteen well glass slides coated overnight at 4° C. with ligands for CR3 (fibrinogen) or LFA-1 (ICAM-1). 20 μl of cell suspension were added to the wells and stimulated at 37° C. with 5 μl of agonists prior to washing, fixation and computer-assisted enumeration of bound cells.
Integrin activation was measured as induction of rapid adhesion triggered by the classical chemoattractant N-formyl-L-methionyl-L-leucyl-phenylalanine (fMLP) (100 nM) or by the CC chemokine MIP3β (CCL19, 1 μM). PMNs and monocytes were triggered to adhere to fibrinogen (CR3 ligand); naive human lymphocytes or murine encephalitogenic T cells were triggered to adhere to ICAM-1 (LFA-1 ligand). Triggered adhesion was evaluated after 2 min of stimulation under static conditions. The cells were pretreated at 37° C. for 30-60 min with the indicated concentrations of the test compound. Results are expressed as percentage of inhibition over control (=100%) and are the mean of three experiments in the case of human leukocytes. Results are expressed as mean counts and are the mean counts ±S.D of three experiments and are the mean of three experiments in the case of murine encephalitogenic lymphocytes.
Chemokines trigger rapid arrest of lymphocytes in blood vessels through pertussis toxin-sensitive G protein coupled receptors. Rapid adhesion to purified ICAM-1 was measured in in vitro adhesion assays using control/untreated cells and lymphocytes treated with concentration between 5-50 μM for 1 h. Autoreactive lymphocytes were then stimulated with 1 μM CCL19 (MIP-3beta) for 3 min. […] These compounds were already efficient in blocking adhesion using a concentration of 5 μM for the cell treatment.

| Compound | inhibition at 5 µM [1] [%] | inhibition at 10 µM [1] [%] | inhibition at 25 µM [1] [%] | inhibition at 50 µM [1] [%] | inhibition at 100 µM [1] [%] | inhibition at 5 µM [2] [%] | inhibition at 10 µM [2] [%] | inhibition at 25 µM [2] [%] | inhibition at 50 µM [2] [%] | Block of chemokine-induced autoreactive lymphocyte adhesion, in words [3] | Chemokine-induced Adhesion in encephalitogenic lymphocytes, Mean counts ± S.D., in presence of MIP3-β stimulation ([3]; [cpd] 5 μM) | Adhesion in encephalitogenic lymphocytes, Mean counts ± S.D., in absence of MIP3-β stimulation ([3]; [cpd] 5 μM) | Chemokine-induced Adhesion in encephalitogenic lymphocytes, Mean counts ± S.D., in presence of MIP3-β stimulation ([3]; [cpd] 10 μM) | Adhesion in encephalitogenic lymphocytes, Mean counts ± S.D., in absence of MIP3-β stimulation ([3]; [cpd] 10 μM) | Chemokine-induced Adhesion in encephalitogenic lymphocytes, Mean counts ± S.D., in presence of MIP3-β stimulation ([3]; [cpd] 25 μM) | Adhesion in encephalitogenic lymphocytes, Mean counts ± S.D., in absence of MIP3-β stimulation ([3]; [cpd] 25 μM) | Chemokine-induced Adhesion in encephalitogenic lymphocytes, Mean counts ± S.D., in presence of MIP3-β stimulation ([3]; [cpd] 50 μM) | Adhesion in encephalitogenic lymphocytes, Mean counts ± S.D., in absence of MIP3-β stimulation ([3]; [cpd] 50 μM) |
| --- | --- | --- | --- | --- | --- | --- | --- | --- | --- | --- | --- | --- | --- | --- | --- | --- | --- | --- |
| COc1ccc(-c2c(C#N)n(CCCO)c3cc(OC)c(OC)cc23)cc1 [Example 44] | 75 | 84 | 88 | 91.5 | 99 | 29 | 39 | 43 | 84 | almost complete block | 2.1 ± 0.5 | 1.0 ± 0.9 | 3.7 ± 1.1 | 0.4 ± 1.7 | 1.8 ± 0.5 | 0.4 ± 0.1 | 0.1 ± 0.5 | 0.4 ± 0.5 |
| COc1ccc(-c2c3n(c4cc(OC)c(OC)cc24)CCNC3=O)cc1 [Example 27] | 69 | 76 | 82 | 90 | 99 | 11 | 31 | 35.5 | 82 | almost complete block | 17.7 ± 2.5 | 5.0 ± 2.2 | 18.1 ± 4.3 | 1.7 ± 1.0 | 9.3 ± 0.5 | 1.5 ± 0.1 | 5.1 ± 1.1 | 1.2 ± 1.1 |
| COc1ccc(-c2c(C#N)[nH]c3cc(OC)c(OC)cc23)cc1 [Example 17] | 72.8 | 72.5 | 76 | 92 | 99 | 34 | 53 | 71.5 | 89 | almost complete block | 13.6 ± 3.5 | 2.0 ± 1.0 | 10.0 ± 3.0 | 0.9 ± 0.2 | 1.8 ± 1.0 | 0.6 ± 0.5 | 2.1 ± 0.9 | 0.4 ± 0.1 |
| COC(=O)c1[nH]c2cc(OC)c(OC)cc2c1-c1ccccc1 [Example 3] | 78 | 79.5 | 90 | 92 | 99 | 6 | 9 | 32.5 | 71.4 | almost complete block | 10.5 ± 3.0 | 1.5 ± 2.0 | 8.7 ± 3.0 | 1.8 ± 1.0 | 3.5 ± 1.5 | 1.2 ± 1.0 | 5.0 ± 2.0 | 0.5 ± 2.0 |

From patent US20080226718A1, “Indole and Azaindole Derivatives For the Treatment of Inflammatory and Autoimmune Diseases” (Brane Discovery S.r.l, priority 2005, published 2008)
